Data as given in US5985926A, “Method for inhibiting intracellular viral replication” (Cell Therapeutics, Inc., priority 1997, dated 1999).

Key:
NFκB = NFκB activation in 293tat cells, electrophoretic mobility shift assay; assay type: cell-based, human; conditions: CT2576 12 μM, TNF-α 40 ng/ml or IL-1β 1 ng/ml
Experimental: (§1) Nuclear extracts (A) from 293tat cells were tested by EMSA for activation of NFκB. A radiolabeled 40-mer covering the NFκB sequences in the HIV promoter was used as a probe. Cells were incubated with CT2576 at 12 μM, human TNF-α at 40 ng/ml or IL-1β at 1 ng/ml, or pre-incubated for 30 min. with CT2576 and then stimulated with TNF-α or IL-1β for 18 hr prior to making extracts. RNA was extracted from 293tat cells (B) after treatment with CT2576 without or with TNF-α or IL-1β for 18 hr. Northern blots analysis were performed using probes derived from AP cDNA and G3PDH cDNA as a control for normalization of mRNA level. AP activity was determined in cell supernatants from the various samples.
(§2) NFκB binding activity in nuclear extracts (Dignam et al., Nucleic Acids Res. 11:1475-1489, 1983) of cells was measured by electrophoretic mobility-shift assay (EMSA) (Carthew et al., Cell 43:439-448, 1985) using 5'-labeled double-stranded synthetic DNA with two NF-κB motifs. Northern blot analysis was performed with total RNA run on 1% agarose/formaldehyde gel and probed with ^32 P-labeled cDNA of AP and glyceraldehyde-3-phosphate dehydrogenase (G3PDH).

AP mRNA in 293tat cells = assay: AP mRNA level in 293tat cells, Northern blot; assay type: cell-based, human; conditions: with TNF-α or IL-1β
Experimental: as §1, §2

U1 cells = assay: Cytotoxicity in U1 cells; assay type: cell-based, human
Text: We studied the effect of CT-2576 on HIV expression in a chronically HIV-1 infected promonocytic U1 cell line (Folks et al., Science 238:800-802, 1987). […] TNF-α and other cytokines can induce HIV expression in U1 cells. U1 cells also express HIV constitutively when grown to a relatively high density. […] An inhibitor of viral reverse transcriptase is expected to only protect new cells from becoming infected but not to affect viral production from cells already infected with HIV. […] While TNF-α induces HIV expression through activation of NFκB, IL-6 and IL-1 also stimulates HIV expression through other pathways independent of NFκB activation in U1 cells.

293-EBNA cells [1] = assay: Viability of 293-EBNA cells, Alamar Blue; assay type: cell-based, human
Experimental: (§3) Cell viability was measured by a colorimetric assay that uses Alamar Blue dye (Alamar, Inc.) to report cell proliferation, viability and cytotoxicity. This vital dye indicates cell activity by serving as substrate for mitochrondrial dehydrogenases for the formation of soluble dyes which can be quantitated by determining the difference in absorbance between A570 and A600 using a plate reader.
as §3, with “[…]” for “colorimetric”
This example illustrates that CT2576 suppressed both tat-dependent and TNF-α induced HIV-LTR transcription with an IC50 of approximately 10 μM. Study of the effects of CT2576 on cell toxicity was performed using the Alamar Blue™ dye (Alamar Biosciences) according to the manufacturer's instructions. CT2576 was not toxic to 293-EBNA cells at concentrations up to 35 μM. To show CT2576 can inhibit HIV expression, CT2576 was tested for the ability to block HIV p24 antigen expression in chronically or acutely infected cells. Specifically, CT2576 inhibited the TNF-α and IL-6 induced and the constitutive expression of HIV in the chronically infected U1 cells and in peripheral blood lymphocytes (PBL) freshly infected with a HIV strain from a clinical isolate with an IC50 of approximately 1 μM. Pharmacological inhibition of synthesis of selected PL may therefore be a novel therapeutic approach to suppression of HIV replication.

[2] = system: CMV promoter in 293-EBNA cells; assay: AP reporter gene expression from CMV promoter, 293-EBNA cells stably transfected with pCMV.AP; assay type: cell-based, human cytomegalovirus; human cells
Experimental: An assay for measuring the anti-viral activity of the compounds involves testing the abilities of the compounds to inhibit gene expression directed by specific viral promoters in cell lines. Specifically, a plasmid construct, pCMV.AP, using the human cytomegalovirus (CMV) enhancer and promoter to direct the expression of the secreted human placental alkaline phosphatase reporter gene were transformed into a tumor cell line (e.g., 293-EBNA cells). The cultured cells were treated with various concentrations of the compounds. The expression of the alkaline phosphatase (AP) reporter gene in the individual cultures can then be measured by following the change in absorbance at A405 of the cell conditioned media in the presence of a suitable substrate (e.g., ortho-nitrophenol phosphate) (Berger et al., Gene 66:1,1988).
The construction of expression vectors for secreted placental alkaline phosphatase (sPAP) was performed by obtaining a mammalian episomal expression vector pBL3, derived from the plasmids pMEP4 and pCEP4 (Invitrogen Corp). Specifically, a 600 bp Spe I--Kpn I fragment spanning the CMV promoter from pCEP4 and a 9500 bp Xba I--Kpn I vector fragment from pMEP4 were isolated and ligated together to form pBL3. Full length sPAP cDNA was amplified by PCR using the plasmid pGEM4Z/SEAP (ATCC) as template with primers 5'-[…]-3' (SEQ ID NO. 1) and 5'-[…]-3' (SEQ ID NO. 2). The PCR product was then digested with Xba I and Sal I and inserted between the Nhe I site and the Xho I site within the multiple cloning region of pBL3. The resulting plasmid was designated as PCMV.AP.

293-EBNA cells [3] = system: 293-EBNA cells
[4] = system: HIV-LTR promoter (tat transactivation) in 293-EBNA cells; assay: AP reporter gene expression from HIV-LTR promoter with tat expression vector, 293-EBNA cells; assay type: cell-based, HIV; human cells; conditions: 293-EBNA cells, HIV promoter, in words
Text: The plasmid construct, pHIV.AP, using the human immunodeficiency virus (HIV) long terminal repeat (LTR) promoter (derived from pU3R-III CAT, Sodroski et al., Science 227:171, 1985) to direct the expression of the sPAP reporter gene, was made by replacing the CMV promoter region from pCMV.AP with the HIV-LTR promoter. PHIV.AP was co-transfected with pSV2tat72, an expression vector for the 72 amino acids tat protein from HIV (Frankel and Pabo, Cell 55:1189-1193, 1988), into 293-EBNA cells (Invitrogen). The cultured cells were treated with various concentrations of the compounds. The expression of the alkaline phosphatase (AP) reporter gene in the individual cultures was measured by following change in absorbance at 405 nm of the cell conditioned media in the presence of a suitable substrate (e.g., ortho-nitrophenol phosphate) (Berger et al., Gene 66:1-10, 1988).
We set up a cell-based system with a cell line cotransfected with an expression plasmid using HIV-1-LTR promoter to direct synthesis of AP reporter gene and an expression plasmid to direct synthesis of the first 72 amino acids of tat protein. Plasmid pREP7 (Invitrogen) was converted to pREP7b by deleting 2,040 bp EBNA-1 coding region and by replacing the pBR322 origin of replication (ori) with the pBluescript KS (Stratagene) ori region. The cDNA for secreted placental alkaline phosphatase (AP) was generated by PCR with the primers (5'-[…]-3')(SEQ ID NO. 3) and (5'-[…]-3') (SEQ ID NO. 4)using the plasmid pGEM-4Z/PLAP489 (American Type Culture Collection) as the template. The 2,000 bp Xba I-Sal I fragment obtained was ligated into a Nhe I/Xho I vector derived from pREP7b to generate the plasmid pREP7b.AP. The 44 bp Xba I-Bgl II fragment from plasmid pMEP4 (Invitrogen)and the 36 bp BamH I-Kpn I fragment from pREP7 were ligated into the Xba I-Kpn I vector fragment from pREP7b.AP to generate the plasmid pMCS.AP. The 720 bp Xho I-Hind III fragment encoding the HIV-LTR promoter from the plasmid pU3R-III-CAT (Sodroski et al., Science 227:171-173, 1985) was ligated into the Xho I-Hind III vector fragment of PMCS.AP to generate the plasmid pHIV.AP. The CMV promoter was derived from the 600 bp Spe I-Asp718 I fragment from pCEP4 (Invitrogen). The 360 bp SV40 early promoter fragments were produced from pSV2tat72 (Frankel et al., Cell 55:1189-1193,1988) by PCR using the primers (5'-[…]-3') (SEQ ID NO. 5) and (5'-[…]-3') (SEQ ID NO. 6). The 480 bp phosphoglycerate kinase (PGK) promoter fragment was amplified from human placental genomic DNA (Promega, Madison, Wis.) based on published sequence (Pfeifer et al., Science 246:810-813, 1990) using the primers (5'-[…]-3') (SEQ ID NO. 7) and (5'-[…]-3') (SEQ ID NO. 8). The above fragments were ligated into the Xba I-Asp718 I vector fragment of pHIV.AP to generate pHIV2.AP, pHIV3.AP, pCMV.AP, pSVE.AP and PPGK.AP respectively. The tat-expression plasmid directed by HIV-LTR promoter, pHIV.tat, was generated by inserting the 400 bp EcoRV-HindIII fragment from pHIV.AP into the PvuII-HindIII vector fragment from pSV2tat72 (Frankel et al., Cell 55:1189-1193, 1988).
Transient transfections with various expression plasmids were performed on a human kidney embryonic cell line 293-EBNA (Invitrogen) using the cationic lipid DOTAP (Boehringer Mannheim). The cell culture media were changed 24 hr after transfection into a serum-free medium AIM V (Life Technologies) before addition of compounds or TNF-α (PeproTech) at the appropriate concentrations. AP activity measured by a colorimetric assay (Berger et al., Gene 66:1-10, 1988) was performed 19-24 hr later.

| Compound | activation of NFκB (NFκB) | AP transcript / mRNA steady-state level (AP mRNA in 293tat cells) | cytotoxicity in U1 cells at 25 μM (U1 cells; 25 μM, FIG. 12 bottom panel, TNFα) | cytotoxicity in U1 cells (U1 cells; FIG. 12 top panel, constitutive) | cytotoxic effect on 293-EBNA cells (Alamar Blue) (293-EBNA cells [1]) | IC50 ([2]; Homo sapiens, 293-EBNA, FIG. 8, read-out: concentration inhibiting AP activity by 50% (CMV assay)) [µM] | inhibition of AP expression (CMV promoter) ([2]; in words) | effect on cell viability / cytotoxicity (293-EBNA cells [3]) | inhibition of AP expression (HIV-LTR promoter) [4] |
| --- | --- | --- | --- | --- | --- | --- | --- | --- | --- |
| IL-1β: cytokine used as stimulant | NFκB was activated | induction of AP transcripts | – | – | – | – | – | – | – |
| CCCCCCCCNCC(O)CCCCCCCCCn1c(=O)ccn(C)c1=O (stereo not drawn) [CT1827, 3-(11-octylamino-10-hydroxyundecyl)-1-methyluracil] | – | – | some cytotoxicity | some cytotoxicity | no significant cytotoxic effect | 2 to 6 | inhibit CMV promoter driven expression | minimal cytotoxic effects | inhibit HIV promoter driven expression |
